Measured values taken from patent publication US20030153475A1, “Composition for treating contact lenses” (priority 2001, published 2003).

Target: T1, hen egg lysozyme (Gallus gallus, UniProt P00698)
T1 construct: from tissue; host or cells: hen egg
Experiment: lysozyme denaturation/stabilization test: lysozyme activity on M. luteus suspension, optical density at 450nm
Assay type: biochemical
Conditions: Table 1; saline + 20 mM buffering agent; lysozyme + heat (80° C., 1 hour); 0 min
Method: Each solution included saline and 20 mM of buffering agent as specified in Table 1 below. To each test solution was added 1 mg/ml of hen egg lysozyme as well as a phosphate buffered saline (PBS) control. The test solutions were mixed slowly with a stir bar until the lysozyme was incorporated into the solutions. Five ml of each lysozyme-containing test solution was retained as the unheated control. The remaining 5 ml of each lysozyme-containing test solution were placed in glass less vials, capped with silicone stoppers and incubated in a shaking water bath at 80° C. 40 revolutions per minute (rpm) for 1 hour—these heating conditions are sufficient to denature the lysozyme, absent a stabilization effect provided by the buffering agents. The vials were allowed to come to ambient temperature before testing. A 0.00025 g/ml suspension of M. luteus was prepared from lyophilized cells in PBS. The suspension was continually mixed on a stir plate during the testing period to prevent the suspension from settling. For each set of test solutions, the following were tested (sample): a heated lysozyme-containing test solution (“lysozyme+heat”); an unheated lysozyme-containing test solution (“lysozyme/no heat”; and a test solution without lysozyme (“no lysozyme”). One ml of each sample was placed into a glass test tube to which 9 ml of M. luteus suspension was added and vortexed. A 1-ml sub sample was placed into a disposable cuvette and evaluated on a UV-vis spectrophotometer at 450nm. […] Each of the solutions were evaluated in triplicate. Each of the three optical density measurements from the triplicate samples were averaged.

T1 sequence (P00698 19-147): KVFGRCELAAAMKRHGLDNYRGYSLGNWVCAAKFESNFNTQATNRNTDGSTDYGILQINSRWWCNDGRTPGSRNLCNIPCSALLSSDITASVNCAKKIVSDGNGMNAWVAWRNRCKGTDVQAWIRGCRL

In order of falling “Time 0 Min (optical density, 450nm)” value:
1. O=C(O)CC(O)(CC(=O)O)C(=O)O [Citrate]  0.877
2. Borate  0.872
3. Phosphate  0.861
4. NC(CO)(CO)CO [Tris, 2-amino-2-hydroxymethyl-1,3-propanediol]  0.810

Same assay, conditions: Table 1; saline + 20 mM buffering agent; lysozyme + heat (80° C., 1 hour); 5 min

In order of falling “Percent Change 5 Min” value:
1. NC(CO)(CO)CO [Tris, 2-amino-2-hydroxymethyl-1,3-propanediol]  80.99%
2. Borate  21.90%
3. O=C(O)CC(O)(CC(=O)O)C(=O)O [Citrate]  2.96%
4. Phosphate  0.34%

In order of rising “Time 5 Min (optical density, 450nm)” value:
1. NC(CO)(CO)CO [Tris, 2-amino-2-hydroxymethyl-1,3-propanediol]  0.154
2. Borate  0.681
3. O=C(O)CC(O)(CC(=O)O)C(=O)O [Citrate]  0.851
4. Phosphate  0.858

Same assay, conditions: Table 1; saline + 20 mM buffering agent; lysozyme + heat (80° C., 1 hour); 10 min

In order of falling “Percent Change 10 Min” value:
1. NC(CO)(CO)CO [Tris, 2-amino-2-hydroxymethyl-1,3-propanediol]  85.56%
2. Borate  55.28%
3. O=C(O)CC(O)(CC(=O)O)C(=O)O [Citrate]  10.49%
4. Phosphate  1.05%

In order of falling “Time 10 Min (optical density, 450nm)” value:
1. Phosphate  0.852
2. O=C(O)CC(O)(CC(=O)O)C(=O)O [Citrate]  0.785
3. Borate  0.390
4. NC(CO)(CO)CO [Tris, 2-amino-2-hydroxymethyl-1,3-propanediol]  0.117

Same assay, conditions: Table 1; saline + 20 mM buffering agent; lysozyme/no heat; 1 mg/ml lysozyme; 0 min

In order of falling “Time 0 Min (optical density, 450nm)” value:
1. NC(CO)(CO)CO [Tris, 2-amino-2-hydroxymethyl-1,3-propanediol]  0.654
2. O=C(O)CC(O)(CC(=O)O)C(=O)O [Citrate]  0.654
3. Phosphate  0.634
4. Borate  0.619

Same assay, conditions: Table 1; saline + 20 mM buffering agent; lysozyme/no heat; 5 min

In order of falling “Percent Change 5 Min” value:
1. NC(CO)(CO)CO [Tris, 2-amino-2-hydroxymethyl-1,3-propanediol]  92.66%
2. O=C(O)CC(O)(CC(=O)O)C(=O)O [Citrate]  92.51%
3. Phosphate  91.80%
4. Borate  91.44%

In order of falling “Time 5 Min (optical density, 450nm)” value:
1. Borate  0.053
2. Phosphate  0.052
3. O=C(O)CC(O)(CC(=O)O)C(=O)O [Citrate]  0.049
4. NC(CO)(CO)CO [Tris, 2-amino-2-hydroxymethyl-1,3-propanediol]  0.048

Same assay, conditions: Table 1; saline + 20 mM buffering agent; lysozyme/no heat; 10 min

In order of rising “Percent Change 10 Min” value:
1. Borate  94.51%
2. O=C(O)CC(O)(CC(=O)O)C(=O)O [Citrate]  95.41%
3. Phosphate  95.43%
4. NC(CO)(CO)CO [Tris, 2-amino-2-hydroxymethyl-1,3-propanediol]  95.72%

In order of falling “Time 10 Min (optical density, 450nm)” value:
1. Borate  0.034
2. O=C(O)CC(O)(CC(=O)O)C(=O)O [Citrate]  0.030
3. Phosphate  0.029
4. NC(CO)(CO)CO [Tris, 2-amino-2-hydroxymethyl-1,3-propanediol]  0.028

Same assay, conditions: Table 1; saline + 20 mM buffering agent; no lysozyme; 0 min

In order of rising “Time 0 Min (optical density, 450nm)” value:
1. Borate  0.853
2. Phosphate  0.856
3. O=C(O)CC(O)(CC(=O)O)C(=O)O [Citrate]  0.857
4. NC(CO)(CO)CO [Tris, 2-amino-2-hydroxymethyl-1,3-propanediol]  0.859

Same assay, conditions: Table 1; saline + 20 mM buffering agent; no lysozyme; 5 min

In order of falling “Percent Change 5 Min” value:
1. O=C(O)CC(O)(CC(=O)O)C(=O)O [Citrate]  0.82%
2. NC(CO)(CO)CO [Tris, 2-amino-2-hydroxymethyl-1,3-propanediol]  0.58%
3. Phosphate  0.47%
4. Borate  0.00%

In order of falling “Time 5 Min (optical density, 450nm)” value:
1. NC(CO)(CO)CO [Tris, 2-amino-2-hydroxymethyl-1,3-propanediol]  0.854
2. Borate  0.853
3. Phosphate  0.852
4. O=C(O)CC(O)(CC(=O)O)C(=O)O [Citrate]  0.850

Same assay, conditions: Table 1; saline + 20 mM buffering agent; no lysozyme; 10 min

In order of falling “Percent Change 10 Min” value:
1. O=C(O)CC(O)(CC(=O)O)C(=O)O [Citrate]  0.82%
2. NC(CO)(CO)CO [Tris, 2-amino-2-hydroxymethyl-1,3-propanediol]  0.58%
3. Phosphate  0.23%
4. Borate  −0.12%

In order of rising “Time 10 Min (optical density, 450nm)” value:
1. O=C(O)CC(O)(CC(=O)O)C(=O)O [Citrate]  0.850
2. NC(CO)(CO)CO [Tris, 2-amino-2-hydroxymethyl-1,3-propanediol]  0.854
3. Phosphate  0.854
4. Borate  0.854
